Data reported in US20230087118A1, “IMIDAZO[1,2-a][sequence] DERIVATIVES AND THEIR USE IN THE TREATMENT OF DISEASE” (priority 2019, published 2023).

The compounds below were run against T1, IRAK4 (Homo sapiens, UniProt Q9NWZ3) (assay: 2-hour 10 μM ATP Biochemical Assay (MesoScale Detection format; IRAK4 phosphorylation of biotin labeled IRAK1 activation loop peptide)). Conditions: 0.1 nM IRAK4.
T1 sequence (Q9NWZ3 1-460): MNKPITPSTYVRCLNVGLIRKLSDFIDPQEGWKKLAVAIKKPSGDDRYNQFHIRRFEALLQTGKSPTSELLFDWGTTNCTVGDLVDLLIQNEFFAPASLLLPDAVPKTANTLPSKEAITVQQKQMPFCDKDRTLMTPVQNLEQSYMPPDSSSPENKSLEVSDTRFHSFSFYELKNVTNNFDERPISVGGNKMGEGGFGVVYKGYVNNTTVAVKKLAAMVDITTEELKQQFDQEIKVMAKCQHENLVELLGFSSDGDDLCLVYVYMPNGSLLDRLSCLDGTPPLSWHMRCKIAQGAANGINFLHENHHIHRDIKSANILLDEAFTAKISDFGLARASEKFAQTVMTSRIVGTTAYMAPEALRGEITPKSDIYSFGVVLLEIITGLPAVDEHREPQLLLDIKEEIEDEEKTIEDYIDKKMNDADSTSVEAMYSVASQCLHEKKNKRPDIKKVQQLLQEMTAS
Protocol: Compounds of the invention were assessed for their ability to inhibit IRAK4 activity. The inhibitory properties of the compounds of the invention described herein can be evidenced by testing in any one of the following assays.
The 2-hour 10 μM ATP Biochemical Assay employs a MesoScale Detection (MSD) format. The kinase reaction is based on the IRAK4 phosphorylation of a biotin labeled peptide (IRAK1 activation loop sequence 360-389).
The kinase reaction in 30 μl is carried out in wells of a 384 well polypropylene assay plate, with 0.1 nM IRAK4, 1.6 μM of biotinylated peptide substrate and 10 μM ATP in 50 mM Hepes, pH 7.5, 60 mM NaCl, 5 mM MgCl2, 0.25 mM MnCl2, 2 mM DTT, 0.01% BSA, and 1% DMSO (from compound DMSO stocks), for 2 hour at room temperature. The activity is quenched with 11 μl of 70 mM EDTA, pH 8.
To detect the phosphorylated biotinylated peptide substrate, 30 μl of the quenched reaction mixture is added to equivalent wells of a 384 well streptavidin coated MesoScale plate (Meso Scale Discovery #L21SA-1). After a 1 hour incubation of the plate for 1 hour at room temperature with gentle mixing, the plate wells are washed 3 times with 50 mM Tris, pH 7.5, 150 mM NaCl, 0.02% Tween-20.
A 25 μl volume of 1:500 anti-P-Threonine Rabbit polyclonal Antibody plus 1:500 Goat-anti-Rabbit Sulfo Tag Antibody (Meso Scale Discovery R32AB-1) in 50 mM Tris, pH 7.5, 150 mM NaCl, 0.02% Tween-20 plus 2% BSA is then added to each well. After a 1-hour incubation of the plate for 1 hour at room temperature with gentle mixing, the plate wells are washed, 3 times with 50 mM Tris, pH 7.5, 150 mM NaCl, 0.02% Tween-20. A 40 μl volume of 2× MSD Read Buffer (Meso Scale Discovery R92TC-1) is added to each well, and the plate is read immediately in an MSD Plate Reader (Meso Scale Discovery).
`COc1cc2nc(C3CCOCC3)cn2cc1C(=O)Nc1cccc(C(F)(F)CF)c1` [Example 122] was tested, and the IC50 was 15 nM.
With `COc1cc2nc(CC3CCOCC3)cn2cc1C(=O)Nc1cccc(C(F)(F)F)n1` [Example 45] the IC50 was 13 nM.
Compound `COc1cc2nc(C3CCOCC3)cn2cc1C(=O)Nc1cccc(C(F)(F)F)c1C` [Example 142] has an IC50 of 14 nM.
Work on `COc1cc2nc(C3CC34CCOCC4)cn2cc1C(=O)Nc1cccc(C(F)(F)F)n1` (stereo not shown) [Example 40] yielded an IC50 of 9 nM.
`COc1cc2nc(C3CCOCC3)cn2cc1C(=O)Nc1cccc2c1CCC2` [Example 121] showed an IC50 of 3 nM.
Work on `COc1cccc(NC(=O)c2cn3cc(CC4CCOCC4)nc3cc2OC)n1` [Example 10] yielded an IC50 of 8 nM.
For `COc1cccc(NC(=O)c2cn3cc(C4CC5(CCOC5)C4)nc3cc2OC)n1` (stereo not shown) [Example 11], the IC50 was 2 nM.
`COc1cc2nc(C3CC4(CCOC4)C3)cn2cc1C(=O)Nc1cccc(C(F)(F)F)n1` (stereo not shown) [Example 38] showed an IC50 of 2 nM.
`COc1cc(C(=O)Nc2cccc(C(F)F)n2)cn2cc(C3(OC)CC3)nc12` [Example 91, N-(6-(difluoromethyl)pyridin-2-yl)-8-methoxy-2-(1-methoxycyclopropyl)imidazo[1,2-a]pyridine-6-carboxamide] gave an IC50 of 79 nM.
`COc1cccc(NC(=O)c2cn3cc(C4CC5CCC(C4)O5)nc3cc2OC)n1` (stereo not shown) [Example 18] was tested, and the IC50 was 1 nM.
In the case of `COc1cc2nc(C3CCOCC3)cn2cc1C(=O)Nc1cc(F)cc(Cl)c1` [Example 172], the IC50 is reported as 21 nM.
Work on `COc1cc2nc(C3CCOCC3)cn2cc1C(=O)NC1CCCC2C1C2(F)F` (stereo not shown) [Example 117] yielded an IC50 of 567 nM.
`COc1cccc(NC(=O)c2cn3cc(C(C)(C)CC#N)nc3cc2OC)n1` [Example 13] gave an IC50 of 17 nM.
With `COc1cc(C(=O)Nc2cccc(C(F)(F)F)n2)cn2cc(C3CCOCC3)nc12` [Example 75] the IC50 was 6 nM.
Work on `COc1cc2nc(C3CCOCC3)cn2cc1C(=O)Nc1cc(F)cc(F)c1F` [Example 120] yielded an IC50 of 18 nM.
`COc1cccc(NC(=O)c2cn3cc(CC(C)C#N)nc3cc2OC)n1` (stereo not shown) [Example 12] gave an IC50 of 32 nM.
For `COc1cc2nc(C3CCOCC3)cn2cc1C(=O)Nc1ccns1` [Example 156], the IC50 was 147 nM.
`COc1cc(F)cc(NC(=O)c2cn3cc(C4CCOCC4)nc3cc2OC)c1` [Example 151] was tested, and the IC50 was 46 nM.
With `COc1cc2nc(C3CCOCC3)cn2cc1C(=O)Nc1cc(F)c(F)c(F)c1` [Example 137] the IC50 was 132 nM.
Work on `COc1cc2nc(C3CCOCC3)cn2cc1C(=O)NC1CCCC(F)C1` (stereo not shown) [Example 139] yielded an IC50 of 725 nM.
Compound `COc1cc2nc(C3CCOCC3)cn2cc1C(=O)Nc1cc(F)ccc1OC(C)C` [Example 106] has an IC50 of 80 nM.
In the case of `COc1cc2nc(C3CCOCC3)cn2cc1C(=O)Nc1cc(C)cc(C)c1OC` [Example 166], the IC50 is reported as 306 nM.
`COc1cccc(NC(=O)c2cn3cc(C4(OC)CC4)nc3cc2OC)n1` [Example 14] gave an IC50 of 26 nM.
Work on `CCOc1cc2nc(C3CCOCC3)cn2cc1C(=O)Nc1cccc(C(F)F)n1` [Example 73] yielded an IC50 of 1 nM.
For `COc1cc2nc(C3CCOCC3)cn2cc1C(=O)Nc1cc(F)cc(F)c1` [Example 152], the IC50 was 23 nM.
In the case of `COc1cc2nc(C(C)(C)CC#N)cn2cc1C(=O)Nc1cccc(C(F)(F)F)n1` [Example 46], the IC50 is reported as 37 nM.
Work on `COc1cc2nc(C3CCOCC3)cn2cc1C(=O)Nc1nc(C)c(Cl)s1` [Example 171] yielded an IC50 of 845 nM.
Compound `COc1cc2nc(C3CCOCC3)cn2cc1C(=O)Nc1cccnc1C1CC1` [Example 148] has an IC50 of 87 nM.
`COc1cc2nc(C3CCOCC3)cn2cc1C(=O)N[C@@H]1CCCC[C@H]1OC` (racemic) [Example 155] gave an IC50 of 230 nM.
`COc1cc2nc(C3CCOCC3)cn2cc1C(=O)Nc1cccc(C)c1C` [Example 153] showed an IC50 of 19 nM.
In the case of `CCc1ccccc1NC(=O)c1cn2cc(C3CCOCC3)nc2cc1OC` [Example 167], the IC50 is reported as 73 nM.
`COc1cc2nc(C3CCOCC3)cn2cc1C(=O)Nc1cccc(C2CC2)c1` [Example 163] showed an IC50 of 688 nM.
Compound `COc1cccc(NC(=O)c2ccc3nc(C4CCOCC4)cn3c2)n1` [Example 47] has an IC50 of 92 nM.
In the case of `COc1cc2nc(C3CCOCC3)cn2cc1C(=O)Nc1ccc(F)c(F)c1C` [Example 181], the IC50 is reported as 169 nM.
Work on `COc1cc2nc(C3CCOCC3)cn2cc1C(=O)Nc1cccc2c1C1CCC2O1` (stereo not shown) [Example 130] yielded an IC50 of 140 nM.
`COc1cc2nc(C3CCOCC3)cn2cc1C(=O)N[C@@H]1COC[C@H]1F` (racemic) [Example 123] showed an IC50 of 741 nM.
Work on `COc1cc2nc(C3CCOCC3)cn2cc1C(=O)Nc1cccc(F)c1` [Example 165] yielded an IC50 of 24 nM.
Work on `COc1cc2nc(C3CCOCC3)cn2cc1C(=O)N[C@@]12CCC[C@@H]1C2` (racemic) [Example 149] yielded an IC50 of 794 nM.
`COc1cc2nc(C3CCOCC3)cn2cc1C(=O)Nc1cc(C)cc(C)n1` [Example 127] gave an IC50 of 200 nM.
Work on `COc1cccc(NC(=O)c2cn3cc(C4CCOCC4)nc3cc2OC)c1` [Example 157] yielded an IC50 of 21 nM.
In the case of `COc1cccc(NC(=O)c2cn3cc(C45CC(C#N)(C4)C5)nc3cc2OC)n1` [Example 19], the IC50 is reported as 6 nM.
`COc1cc2nc(C3CCOCC3)cn2cc1C(=O)N[C@H]1CC[C@@H](OC)CC1` [Example 161] was tested, and the IC50 was 346 nM.
In the case of `COc1cc2nc(C3CCOCC3)cn2cc1C(=O)Nc1scnc1C` [Example 105], the IC50 is reported as 43 nM.
In the case of `COc1cc2nc(C3CCOCC3)cn2cc1C(=O)NC1CC(C)C1` (stereo not shown) [Example 134], the IC50 is reported as 632 nM.
Work on `COc1cc2nc(C3CC34CCOC4)cn2cc1C(=O)Nc1cccc(C(F)(F)F)n1` (stereo not shown) [Example 39] yielded an IC50 of 24 nM.
Work on `COc1cc2nc(C3CCOCC3)cn2cc1C(=O)Nc1cc(F)c(F)c(C(F)F)c1` [Example 164] yielded an IC50 of 37 nM.
`COc1cccc(NC(=O)c2cn3cc(C4CCOC4)nc3cc2OC)n1` (stereo not shown) [Example 23] showed an IC50 of 25 nM.
`COc1cc2nc(C3CCOCC3)cn2cc1C(=O)Nc1ccccc1CC(C)C` [Example 140] was tested, and the IC50 was 822 nM.
For `COc1cc2nc(C3CCOCC3)cn2cc1C(=O)Nc1cccc(F)c1C` [Example 129], the IC50 was 16 nM.
For `COc1cc2nc(C3CCOCC3)cn2cc1C(=O)Nc1cc(C)cc(C)c1` [Example 178], the IC50 was 305 nM.
In the case of `O=C(Nc1ccn(C(F)F)n1)c1ccc2nc(C3CCOCC3)cn2c1` [Example 49], the IC50 is reported as 350 nM.
`COc1cccc(NC(=O)c2cn3cc(CC4COCCO4)nc3cc2OC)n1` (stereo not shown) [Example 15] showed an IC50 of 31 nM.
For `COc1cc2nc(C3CCOCC3)cn2cc1C(=O)Nc1cccc(OC)c1C` [Example 160], the IC50 was 70 nM.
In the case of `COc1cc2nc(C3CCOCC3)cn2cc1C(=O)Nc1scnc1C(C)C` [Example 150], the IC50 is reported as 23 nM.
`COc1cc2nc(C3CCOCC3)cn2cc1C(=O)Nc1cc(C)cc(F)c1` [Example 176] showed an IC50 of 30 nM.
Compound `COc1cc2nc(C3CCOCC3)cn2cc1C(=O)Nc1cc(F)ccn1` [Example 132] has an IC50 of 34 nM.
Compound `COc1cccc(NC(=O)c2cn3cc(C4CCC(OC)C4)nc3cc2OC)n1` (stereo not shown) [Example 17] has an IC50 of 2 nM.
`COc1cc2nc(C3(OC)CC3)cn2cc1C(=O)Nc1cccc(C(F)(F)F)n1` [Example 34] showed an IC50 of 57 nM.
Compound `COc1cc2nc(C3CCOCC3)cn2cc1C(=O)Nc1cc(Cl)c(F)c(Cl)c1` [Example 119] has an IC50 of 792 nM.

The compounds below were run against T1, IRAK4 (assay: biochemical). Conditions: not given.
In the case of `COc1cc2nc(C3CCOCC3)cn2cc1C(=O)Nc1cccc(C(F)(F)CF)c1` [Example 122], the IC50 is reported as 0.0579 µM.
With `COc1cc2nc(C3CCOCC3)cn2cc1C(=O)Nc1cccc(C(F)(F)F)c1C` [Example 142] the IC50 was 0.0383 µM.
In the case of `COc1cc2nc(C3CCOCC3)cn2cc1C(=O)Nc1cccc2c1CCC2` [Example 121], the IC50 is reported as 0.0092 µM.

Same assay, conditions: IRAK4 Biochemical Assay (1 mM ATP, 2 h) IC50 (μM), 1 mM ATP, 2 h, 100 pM IRAK4
`COc1cc2nc(CC3CCOCC3)cn2cc1C(=O)Nc1cccc(C(F)(F)F)n1` [Example 45] was tested, and the IC50 was 0.0401 µM.
For `COc1cc2nc(C3CC34CCOCC4)cn2cc1C(=O)Nc1cccc(C(F)(F)F)n1` (stereo not shown) [Example 40], the IC50 was 0.0305 µM.
`COc1cccc(NC(=O)c2cn3cc(CC4CCOCC4)nc3cc2OC)n1` [Example 10] was tested, and the IC50 was 0.0293 µM.
With `COc1cccc(NC(=O)c2cn3cc(C4CC5(CCOC5)C4)nc3cc2OC)n1` (stereo not shown) [Example 11] the IC50 was 0.0034 µM.
For `COc1cc2nc(C3CC4(CCOC4)C3)cn2cc1C(=O)Nc1cccc(C(F)(F)F)n1` (stereo not shown) [Example 38], the IC50 was 0.0048 µM.
